Assay results from patent US4853401A, “Spiro-hydantoins as aldose reductase inhibitors” (priority 1987, dated 1989).

Experiments:
[1] = test system: accumulation of sorbitol in the sciatic nerves; assay: Inhibition of accumulation of sorbitol in sciatic nerves of diabetic rats; type: in vivo, Sprague Dawley rats; details: oral 25 mg/kg at 0, 7 and 24 h, sacrificed 27 h
Protocol: (§1) 2.1 Inhibition of accumulation of sorbitol in crystalline lenses and nerves of diabetic rats:
(§2) The effects of the products according to the invention on the proportion of plasma glucose and the accumulation of sorbitol in the crystalline lenses and sciatic nerves of rats made diabetic by streptozotocin were examined by the method of M. J. Peterson, et al (Metabolism, 28, 456-461 (1979)).
(§3) Fasted Sprague Dawley rats were made diabetic by intraperitoneal injection of streptozotocin (75 mg/kg). The product under test was orally administered at a dose of 25 mg/kg after 0, 7 and 24 hours. The rats were sacrificed 27 hours after induction of diabetes. The crystalline lenses and sciatic nerves were taken and preserved at -20° C. until analysed. The crystalline lenses and sciatic nerves were homogenized in water and the proteins were precipitated from ethanol. The precipitate was eliminated by centrifuging and the supernatant liquid was lyophylised. The sorbitol in the sample was determined by the method of B. Bjorkqvist (J. of Chromatograph, 218, 65-71 (1981)), adapted by A. Lenaers et al. (Arch. Intern. Physiol. Bioch., 91, B, 62-63 (1983)).
(§4) The sample was dissolved in pyridine containing galactitol as an internal standard. Derivatives were formed therefrom by phenylisocyanate during incubation for 1 hour at 60° C. The reaction was then stopped by adding methanol and the derivatives were separated and determined by HPLC.
(§5) The results are expressed as percentage inhibition of the accumulation of sorbitol, compared with the controls.

[2] = Effect of in vivo doses on plasma glucose of diabetic rats; design: species or system Sprague Dawley rats; details: n = 5, average ± standard deviation
Protocol: Compound No. 1 (CP 3182 AR) and No. 2 (CP 3192 AR) were evaluated at various doses, using the experimental model described hereinbefore (.sctn.2.1).
In the case of each product, 25 Sprague Dawley rats fasted the previous day were made diabetic by an intraperitoneal injection of streptozotocin (75 mg/kg). The rats were divided into 5 groups of 5, each orally given 0.3, […] or 10 mg/kg of CP 3182 AR or a control.
An identical experiment was performed with CP 3192 AR at the same doses. Treatment was given immediately after the streptozotocin, and 7 and 24 hours later. The animals were sacrificed 27 hours after induction. Estimates were made of the effects of the products on the proportion of plasma glucose and the sorbitol content of the crystalline lenses and sciatic nerves of rats.

[3] = test system: accumulation of sorbitol in the crystalline lenses; assay: Inhibition of accumulation of sorbitol in crystalline lenses of diabetic rats; type: in vivo, Sprague Dawley rats; details: for Inhibition of accumulation of sorbitol in vivo, crystalline lenses: oral 25 mg/kg at 0, 7 and 24 h, sacrificed 27 h
Protocol: as §1, §2, §3, §4, §5

mice [4] = assay: Effect on behaviour (Irwin method), side effects; type: in vivo
Protocol: The effect on behaviour was studied by a method derived from that of S. Irwin (Gordon Res. Conf. on Medicinal Chem., 133, 1959). The substances, suspended in 1% tragacanth mucilage, were orally administered via an intra-gastric probe to groups of 5 male mice fasted for 18 hours. The maximum tested dose was 3 000 mg/kg or 1 000 mg/kg, and smaller doses were tested if an effect has been observed.
(§6) Behaviour was studied, 2, 4, 6 and 24 hours after treatment. Observation was continued if symptoms persisted at that time. Deaths were recorded during the 14 days after treatment. The results are given in Table II, in which the numbers of the compounds are the same as the numbers given in column 1 of Table I.

aldose reductase = target: T1, aldose reductase (Rattus norvegicus, UniProt P07943); assay: Inhibition of enzymatic activity of aldose reductase in vitro; type: biochemical; details: 10^-4 M, rat crystalline lens enzyme, pH 6.2, D,L-glyceraldehyde substrate; read-out: Inhibition of enzymatic activity of AR in vitro
T1 construct: The supernatant liquid formed the enzyme solution used for the test; from tissue; host or cells: rat crystalline lens, water homogenate, supernatant
From the text: 1.1 Inhibiting effect on enzymatic activity of aldose reductase:
The method described by S. Hayman and J. H. Kinoshita (J. Biol. Chem., 240, 877 (1965)) was used for in vitro testing of the aforementioned effect of the products according to the invention.
Rat's crystalline lens was homogenized in water and centrifuged to eliminate insoluble substances. The supernatant liquid formed the enzyme solution used for the test.
(§7) The effect of products according to the invention in inhibiting enzymatic activity of aldose reductase was determined by spectrophotometrically following for 5 minutes the disappearance of NADPH in an aqueous solution containing 0.067M phosphate buffer (final pH: 6.2), 0.40M lithium sulphate, 5.10^-5 M NADPH, 10^-4 M of the product under test and 100 μl of the enzyme solution, to which 10^-2 M of D,L-glyceraldehyde had been added as substrate. (NADPH=reduced form of nicotinamide adenine dinucleotide phosphate).
The inhibiting effect observed in the presence of 10^-4 M of product under test relative to the reaction in the absence of a compound according to the invention, is expressed as a percentage.

[5] = test system: accumulation of galactitol in fibroblasts obtained from human skin; assay: Inhibition of accumulation of galactitol in fibroblasts; type: cell-based; details: Fibroblast, 48 h, 37° C., galactose 3 mg/ml
Protocol: 1.2 Inhibiting effect on accumulation of galactitol:
A test for evaluating this activity was made in vitro on fibroblasts obtained from human skin.
An experimental model culture was obtained by incubating the cells in the presence of a medium containing a high concentration of galactose (3 mg/ml) and the product under test, and measuring the accumulation of galactitol in the cells after a 48-hour incubation period at 37° C. The cells were then isolated, washed in physiological salt solution and treated with a water-ethanol solution. The medium was centrifuged and the supernatant liquid was lyophylized.
The galactitol in the resulting sample was determined by HPLC (=high pressure liquid chromatography) after derivatives had been obtained with phenyl isocyanate.
The proportion of proteins in the precipitate obtained during the previously-mentioned centrifuging was measured by the method of M. M. Bradford (Anal. Biochem., 72, 248-254 (1976)) and indicated the number of cells present in the sample.
The inhibiting effect of the tested product was expressed as a percentage inhibition of intracellular accumulation of galactitol compared with the controls.

[6] = Acute oral toxicity (LD50); type: in vivo; details: mouse, in vivo, mice, read-out: Lethal dose LD50
Protocol: (§8) The LD 50 was calculated by the method of Litchfield and Wilcoxon (J. Pharmacol. Exp. Ther., 96, 99, 1949) and is expressed in mg/kg. The products were orally administered to mice.
as §6

[7] = test system: sorbitol accumulation in sciatic nerves; assay: Effect of in vivo doses on sorbitol accumulation in sciatic nerves of diabetic rats; design: species or system Sprague Dawley rats; details: for ED50: Rattus norvegicus, 27 h, diabetic rats, oral, read-out: ED50 (dose at which measured inhibition of aldose reductase activity is 50%); for ED50 / therapeutic index MED/ED50, sciatic nerves: sciatic nerves
From the text: (§9) 2.2 Effect of "in vivo" doses on sorbitol accumulation in sciatic nerves and crystalline lenses of diabetic rats:
(§10) Estimates were made of the effects of the products on the proportion of plasma glucose and the sorbitol content of the crystalline lenses and sciatic nerves of rats.

[8] = test system: sorbitol accumulation in crystalline lenses; assay: Effect of in vivo doses on sorbitol accumulation in crystalline lenses of diabetic rats; design: species or system Sprague Dawley rats; details: for ED50: Rattus norvegicus, 27 h, diabetic rats, oral, read-out: ED50 (dose at which measured inhibition of aldose reductase activity is 50%); for ED50 / therapeutic index MED/ED50, crystalline lenses: crystalline lenses
From the text: as §9, §10

mice [9] = assay: Acute oral toxicity (LD50); type: in vivo; details: 3 000 mg/kg
Protocol: as §8, §6

[10] = Solubility in the aldose reductase test medium; type: physicochemical; details: 10^-4 M, aqueous phosphate buffer pH 6.2
Protocol: as §7

In the case of `O=C1N(CO)C(=O)C2(c3ccccc3-c3ccccc32)N1CO` [Compound 1, bis-(1',3'-hydroxymethyl)-spiro-/fluorene-9,4'-imidazolidine/-2',5'-dione], the “Inhibition of accumulation of sorbitol in vivo, in sciatic nerves” value (shortened to “Inhibition … in sciatic nerves”) [1] is reported as 85%, the Plasma glucose ([2]; 0.3 mg/kg oral) is reported as 462 ± 60 mg/100 ml and the Plasma glucose ([2]; 1 mg/kg oral) is reported as 538 ± 34 mg/100 ml. For the same compound, the Plasma glucose ([2]; 3 mg/kg oral) was 464 ± 62 mg/100 ml, the Plasma glucose ([2]; 10 mg/kg oral) was 424 ± 37 mg/100 ml and the “Inhibition of accumulation of sorbitol in vivo, crystalline lenses” value (from here on “Inhibition … in vivo, crystalline lenses”) [3] was 81%. For the same compound, the “inhibition of accumulation of sorbitol in crystalline lenses and sciatic nerves (in words)” value ([3]; oral 25 mg/kg, lenses and sciatic nerves) was “particularly active”, the side effect observed (mice [4]; dose of 3000 mg/kg) was “no side effect was observed” and the “MED (minimum dose at which a side effect is observed)” value (mice [4]; mice, oral) was > 3 000 mg/kg. The inhibition at 100 µM (aldose reductase) was 34%, the inhibition at 100 µM ([5]; 10^-4 M) was 85% and the inhibition at 10 µM ([5]; 10^-5 M) was 58%. For the same compound, the inhibition at 1 µM ([5]; 10^-6 M) was 21%, the LD50 at 336 h [6] was > 3000 mg/kg and the “% inhibition of sorbitol accumulation, Sciatic nerves” value (“% inhibition … Sciatic nerves” for short) ([7]; 0.3 mg/kg oral at 0, 7, 24 h) was 29 ± 14%. The “% inhibition … Sciatic nerves” value ([7]; 1 mg/kg oral at 0, 7, 24 h) was 41 ± 10%, the “% inhibition … Sciatic nerves” value ([7]; 3 mg/kg oral at 0, 7, 24 h) was 69 ± 8% and the “% inhibition … Sciatic nerves” value ([7]; 10 mg/kg oral at 0, 7, 24 h) was 82 ± 6%. The ED50 [7] was 1 mg/kg, the “therapeutic index MED/ED50, sciatic nerves” value [7] was “above 3 000” and the “% inhibition of sorbitol accumulation, Crystalline lenses” value (“% inhibition … Crystalline lenses” for short) ([8]; 0.3 mg/kg oral at 0, 7, 24 h) was 0 ± 21%. For the same compound, the “% inhibition … Crystalline lenses” value ([8]; 1 mg/kg oral at 0, 7, 24 h) was 1 ± 3%, the “% inhibition … Crystalline lenses” value ([8]; 3 mg/kg oral at 0, 7, 24 h) was 41% and the “% inhibition … Crystalline lenses” value ([8]; 10 mg/kg oral at 0, 7, 24 h) was 71%. The ED50 [8] was 3 mg/kg and the “therapeutic index MED/ED50, crystalline lenses” value [8] was “about 1 000”.

In the case of `O=C1NC(=O)[C@@]2(CCOc3ccc(F)cc32)N1` [sorbinil, d-6-fluoro-spiro-/chromane-4,4'-imidazolidine/-2',5'-dione, reference compound], the “Inhibition … in sciatic nerves” value [1] is reported as 85%, the “Inhibition … in vivo, crystalline lenses” value [3] is reported as 93% and the “MED (minimum dose at which a side effect is observed)” value (mice [4]; mouse, in vivo, po) is reported as 300 mg/kg. For the same compound, the “duration of side effects” value (mice [4]; mouse, in vivo, po, 300 mg/kg) was “more than 24 hours”, the side-effects (mice [4]; mouse, in vivo, po, 300 mg/kg) was “depression with loss of righting reflex and muscular hypotonia” and the LD50 at 336 h [6] was 1450 mg/kg. The mortality (mice [9]) was “all the mice died on the second day”, the ED50 [7] was 1 mg/kg and the “therapeutic index MED/ED50, sciatic nerves” value [7] was 300. The ED50 [8] was 1 mg/kg and the “therapeutic index MED/ED50, crystalline lenses” value [8] was 300.

In the case of `O=C(Cc1ccccc1)OCN1C(=O)N(COC(=O)Cc2ccccc2)C2(C1=O)c1ccccc1-c1ccccc12` [Compound 23], the “Inhibition … in sciatic nerves” value [1] is reported as 7%, the “insolubility in the tested medium” value [10] is reported as “insol” and the “Inhibition … in vivo, crystalline lenses” value [3] is reported as 5%.
